Patent US20180360767A1, “BIOCOMPATIBLE PARTICLES AND METHODS OF MAKING AND USE THEREOF” (priority 2015, published 2018)

Tests used:
in vivo = settings: mouse, iv, 2 mg/kg
[1] = Pharmacokinetics, doxorubicin concentration in blood plasma after intravenous injection; settings: mouse, 2 mg/kg
[2] = tested on: doxorubicin-resistant HeLa cells; assay: In vitro cytotoxicity on doxorubicin-resistant cells; type: cell-based; settings: even at a concentration of 5 mg L^−1
Description: Next, the cytotoxicity of doxorubicin-loaded nanospheres towards HeLa cells was evaluated with 3-(4, 5-dimethylthiazol-2-yl)-2, 5-diphenyltetrazolium bromide (MTT) assay. HeLa cells (1×10^4 cells per well) were seeded in the 96-well plates. After culture for 24 h, the cells were exposed to the doxorubicin solution and doxorubicin-loaded liquid metal nanoparticles with different concentrations of doxorubicin for 24 h, followed by adding 20 μl of the MTT solution (5 mg mL^−1). After 4 h of incubation, the medium was removed, and the cells were mixed with 150 μl of dimethyl sulfoxide. The absorbance was measured at a test wavelength of 570 nm and a reference wavelength of 630 nm by a microplate reader (Infinite M200 PRO, Tecan).
Next, the in vitro cytotoxicity of doxorubicin loaded ligand-capped liquid metal nanoparticles towards doxorubicin-resistant HeLa cells was investigated.

SMILES: COc1cccc2c1C(=O)c1c(O)c3c(c(O)c1C2=O)C[C@@](O)(C(=O)CO)C[C@@H]3O[C@H]1C[C@H](N)[C@H](O)[C@H](C)O1 [Doxorubicin]
- Cmax (in vivo): 1450 ± 60 ng/mL
- MRT [1]: 2.8 ± 0.61 h
- half-life [1]: 1.11 ± 0.02 h
- cytotoxicity [2]: did not show any obvious cytotoxicity
